Several values for one entry are separate records, joined by “and”; a condition that tells them apart may be missing. Equal entries are not always repeated. Inconclusive results and toxic doses are left out.
System: P388 leukemia ip, CD2F1 mice, survival T/C
Assay: NCI In Vivo Anticancer Drug Screen. Data for tumor model P388 Leukemia (intraperitoneal) in CD2F1 (CDF1) mice
Settings: endpoint: median survival time, higher = longer survival
Summary of the method: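 Mice carrying the transplanted tumor received test compound or vehicle. Survival was recorded in each group, and the value is the treated-group measurement divided by that of the vehicle-treated control group.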

[1] = dose: 6.25 mg/kg/injection, schedule: Q01DX009 (ip), vehicle: saline with Tween-80
[2] = dose: 12.5 mg/kg/injection, schedule: Q01DX009 (ip), vehicle: saline with Tween-80
[3] = dose: 50.0 mg/kg/injection, schedule: Q01DX009 (ip), vehicle: saline with Tween-80
[4] = dose: 50.0 mg/kg/injection, schedule: Q01DX005 (ip), vehicle: saline with Tween-80
[5] = dose: 100.0 mg/kg/injection, schedule: Q01DX005 (ip), vehicle: saline with Tween-80
[6] = dose: 50.0 mg/kg/injection, schedule: Q01DX009 (ip), vehicle: saline
[7] = dose: 100.0 mg/kg/injection, schedule: Q01DX009 (ip), vehicle: saline
[8] = dose: 200.0 mg/kg/injection, schedule: Q01DX009 (ip), vehicle: saline
[9] = dose: 100.0 mg/kg/injection, schedule: Q01DX009 (ip), vehicle: saline with Tween-80
[10] = dose: 25.0 mg/kg/injection, schedule: Q01DX009 (ip), vehicle: saline with Tween-80
[11] = dose: 25.0 mg/kg/injection, schedule: Q01DX009 (ip), vehicle: saline
[12] = dose: 50.0 mg/kg/injection, schedule: Q01DX009 (ip), vehicle: water
[13] = dose: 100.0 mg/kg/injection, schedule: Q01DX009 (ip), vehicle: water
[14] = dose: 200.0 mg/kg/injection, schedule: Q01DX009 (ip), vehicle: water

**Q.** How did the T/C [1] turn out when O=c1nc(Oc2ccccc2)nc2ncccn12 was run?
**A.** The T/C was 101 % of control.

**Q.** And the T/C [2]?
**A.** The T/C was 112 % of control.

**Q.** What about the T/C [3] of the same compound?
**A.** The T/C was 114 % of control.

**Q.** For Cc1nc(Nc2c3ccccc3nc3ccccc23)sc1C, which T/C (dose: 12.5 mg/kg/injection, schedule: Q04DX002 (ip), vehicle: distilled water + Tween-80) is on record?
**A.** Its T/C is 103 % of control.

**Q.** What about the T/C (dose: 25.0 mg/kg/injection, schedule: Q04DX002 (ip), vehicle: distilled water + Tween-80) of the same compound?
**A.** Its T/C is 100 % of control.

**Q.** What about the T/C (dose: 50.0 mg/kg/injection, schedule: Q04DX002 (ip), vehicle: distilled water + Tween-80) of the same compound?
**A.** Its T/C is 88 % of control.

**Q.** And the T/C (dose: 100.0 mg/kg/injection, schedule: Q04DX002 (ip), vehicle: distilled water + Tween-80)?
**A.** Its T/C is 87 % of control.

**Q.** And the T/C (dose: 200.0 mg/kg/injection, schedule: Q04DX002 (ip), vehicle: distilled water + Tween-80)?
**A.** The T/C was 90 % of control.

**Q.** And the T/C (dose: 400.0 mg/kg/injection, schedule: Q04DX002 (ip), vehicle: distilled water + Tween-80)?
**A.** The T/C was 98 % of control.

**Q.** What does the source list for CC(NC(=O)C1CCCN1C(=O)OCc1ccccc1)C(=O)O (stereo not given)?
**A.** T/C [4]: 106 % of control; T/C [5]: 100 % of control; T/C (dose: 200.0 mg/kg/injection, schedule: Q01DX005 (ip), vehicle: saline with Tween-80): 100 % of control

**Q.** CSC(=NS(=O)(=O)c1ccc(C)cc1)SC was tested. Which T/C [6] did it give?
**A.** Its T/C is 109 % of control.

**Q.** What about the T/C [7] of the same compound?
**A.** The T/C was 106 % of control.

**Q.** What about the T/C [8] of the same compound?
**A.** Its T/C is 113 % of control.

**Q.** What does the source list for COC(=O)c1cccc2c(Br)cc3ccccc3c12?
**A.** T/C (dose: 150.0 mg/kg/injection, schedule: Q04DX003 (ip), vehicle: Klucel (hydroxypropylcellulose) (HPC)): 95 % of control; T/C (dose: 300.0 mg/kg/injection, schedule: Q04DX003 (ip), vehicle: Klucel (hydroxypropylcellulose) (HPC)): 91 % of control

**Q.** Which T/C [3] does the source give for O=C(CNC(=O)NCc1ccco1)N/N=C/c1ccccc1O here?
**A.** The T/C was 89 % of control.

**Q.** And the T/C [9]?
**A.** The T/C was 96 % of control.

**Q.** For O=C1c2ccccc2C(=O)c2sccc21, which T/C (dose: 1.56 mg/kg/injection, schedule: Q01DX009 (ip), vehicle: saline with Tween-80) is on record?
**A.** The T/C was 98 % of control.

**Q.** And the T/C (dose: 3.13 mg/kg/injection, schedule: Q01DX009 (ip), vehicle: saline with Tween-80)?
**A.** Its T/C is 105 % of control.

**Q.** What about the T/C [1] of the same compound?
**A.** The T/C was 103 % of control.

**Q.** What about the T/C [2] of the same compound?
**A.** The T/C was 99 % of control.

**Q.** What about the T/C [10] of the same compound?
**A.** The T/C was 97 % of control.

**Q.** What about the T/C [9] of the same compound?
**A.** Its T/C is 88 % of control.

**Q.** With Cc1nc2c(=O)nc3n(c2nc1C)CCS3 as the compound, how does the T/C (dose: 100.0 mg/kg/injection, schedule: Q01DX001 (ip), vehicle: saline) read?
**A.** The T/C was 104 % of control.

**Q.** What about the T/C (dose: 200.0 mg/kg/injection, schedule: Q01DX001 (ip), vehicle: saline) of the same compound?
**A.** The T/C was 102 % of control.

**Q.** And the T/C (dose: 400.0 mg/kg/injection, schedule: Q01DX001 (ip), vehicle: saline)?
**A.** Its T/C is 104 % of control.

**Q.** With CCC(=O)NC(CC(C)C)C(=O)O (stereo not given) as the compound, how does the T/C (dose: 12.5 mg/kg/injection, schedule: Q01DX009 (ip), vehicle: saline) read?
**A.** Its T/C is 111 % of control.

**Q.** And the T/C [11]?
**A.** Its T/C is 95 % of control.

**Q.** And the T/C [6]?
**A.** Its T/C is 89 % of control.

**Q.** What about the T/C [8] of the same compound?
**A.** The T/C was 107 % of control.

**Q.** Which T/C [3] does the source give for CC(=O)N1CCN(c2ccc(OCC3COC(Cn4ccnc4)(c4ccc(Cl)cc4Cl)O3)cc2)CC1 (stereo not given) here?
**A.** Its T/C is 88 % of control.

**Q.** And the T/C [9]?
**A.** Its T/C is 87 % of control.

**Q.** With O=CNc1ccn[nH]1 as the compound, how does the T/C [6] read?
**A.** Its T/C is 106 % of control.

**Q.** What about the T/C [7] of the same compound?
**A.** The T/C was 101 % of control.

**Q.** What about the T/C [8] of the same compound?
**A.** The T/C was 100 % of control.

**Q.** What does the source list for O=C1Nc2ccccc2C12Nc1ccccc1N2?
**A.** T/C (dose: 25.0 mg/kg/injection, schedule: Q04DX003 (ip), vehicle: Klucel (hydroxypropylcellulose) (HPC)): 108 % of control; T/C (dose: 50.0 mg/kg/injection, schedule: Q04DX003 (ip), vehicle: Klucel (hydroxypropylcellulose) (HPC)): 95 % of control; T/C (dose: 100.0 mg/kg/injection, schedule: Q04DX003 (ip), vehicle: Klucel (hydroxypropylcellulose) (HPC)): 97 % of control; T/C (dose: 200.0 mg/kg/injection, schedule: Q04DX003 (ip), vehicle: Klucel (hydroxypropylcellulose) (HPC)): 90 % of control and 91 % of control

**Q.** How did the T/C [12] turn out when O=C(O)c1cc(C(=O)O)c(C(=O)O)cc1C(=O)O was run?
**A.** The T/C was 96 % of control.

**Q.** And the T/C [13]?
**A.** The T/C was 100 % of control.

**Q.** What about the T/C [14] of the same compound?
**A.** The T/C was 99 % of control.

**Q.** How did the T/C [4] turn out when Cc1cc(=O)n(-c2cccc3ccccc23)c(C)c1C(=O)O was run?
**A.** Its T/C is 102 % of control.

**Q.** And the T/C [5]?
**A.** The T/C was 94 % of control.

**Q.** How did the T/C [9] turn out when O=C(O)C(O)(c1ccccc1)C1CCCC1 (stereo not given) was run?
**A.** The T/C was 109 % of control.

**Q.** What about the T/C (dose: 400.0 mg/kg/injection, schedule: Q01DX009 (ip), vehicle: saline with Tween-80) of the same compound?
**A.** Its T/C is 107 % of control.

**Q.** What does the source list for CCn1c2nc(=O)n(C)c(=O)c-2cc2cc(C)ccc21?
**A.** T/C [2]: 92 % of control; T/C [10]: 101 % of control; T/C [3]: 109 % of control

**Q.** Which T/C [2] does the source give for Cc1cc(NC(=O)NCc2ccc(N3C(N)=NC(N)=NC3(C)C)cc2)ccc1S(=O)(=O)F here?
**A.** The T/C was 119 % of control.

**Q.** What about the T/C (dose: 25.0 mg/kg/injection, schedule: Q04DX003 (ip), vehicle: saline with Tween-80) of the same compound?
**A.** Its T/C is 105 % of control.

**Q.** And the T/C (dose: 25.0 mg/kg/injection, schedule: Q04DX003 (ip), vehicle: saline)?
**A.** Its T/C is 109 % of control.

**Q.** And the T/C (dose: 50.0 mg/kg/injection, schedule: Q04DX003 (ip), vehicle: saline with Tween-80)?
**A.** Its T/C is 119 % of control.

**Q.** What about the T/C [9] of the same compound?
**A.** The T/C was 176 % of control.

**Q.** And the T/C (dose: 100.0 mg/kg/injection, schedule: Q04DX003 (ip), vehicle: saline with Tween-80)?
**A.** Its T/C is 153 % of control.

**Q.** And the T/C (dose: 200.0 mg/kg/injection, schedule: Q04DX003 (ip), vehicle: saline with Tween-80)?
**A.** Its T/C is 164 % of control.

**Q.** And the T/C (dose: 200.0 mg/kg/injection, schedule: Q04DX003 (ip), vehicle: saline)?
**A.** The T/C was 154 % of control.

**Q.** What about the T/C (dose: 400.0 mg/kg/injection, schedule: Q04DX003 (ip), vehicle: saline) of the same compound?
**A.** Its T/C is 90 % of control.

**Q.** What does the source list for CN(C)C1C(=O)C(C(=O)NCNCCC(=O)O)=C(O)C2(O)C(=O)C3=C(O)c4c(O)cccc4C(C)(O)C3CC12 (stereo not given)?
**A.** T/C (dose: 50.0 mg/kg/injection, schedule: Q01DX005 (ip), vehicle: saline): 101 % of control; T/C (dose: 100.0 mg/kg/injection, schedule: Q01DX005 (ip), vehicle: saline): 94 % of control; T/C (dose: 200.0 mg/kg/injection, schedule: Q01DX005 (ip), vehicle: saline): 101 % of control

**Q.** With COc1cc(C2=N/C(=C\c3ccccc3O)C(=O)O2)cc(OC)c1OC as the compound, how does the T/C [11] read?
**A.** Its T/C is 94 % of control.

**Q.** What about the T/C [6] of the same compound?
**A.** Its T/C is 94 % of control.

**Q.** And the T/C [7]?
**A.** Its T/C is 91 % of control.

**Q.** Which T/C (dose: 25.0 mg/kg/injection, schedule: Q01DX009 (ip), vehicle: water) does the source give for O=C(O)C(Cc1ccc(O)cc1)NSc1ccccc1[N+](=O)[O-] (stereo not given) here?
**A.** Its T/C is 111 % of control.

**Q.** And the T/C [12]?
**A.** Its T/C is 108 % of control.

**Q.** What about the T/C [13] of the same compound?
**A.** Its T/C is 104 % of control.

**Q.** And the T/C [14]?
**A.** The T/C was 110 % of control.

From PubChem BioAssay AID330 (DTP/NCI, 2004)
